Assay results: paper PMC8704611, “Synthesis, Molecular Docking Analysis, and Biological Evaluations of Saccharide-Modified Sulfonamides as Carbonic Anhydrase IX Inhibitors” (International Journal of Molecular Sciences, 2021)
Like-named read-outs stand apart in the source and are kept apart here.

Experiments:
HT-29 cells [1] = assay: CCK-8 cell viability assay; type: cell-based; conditions: for viability at 400 µM: Homo sapiens, HT-29, 400 μM, 48 h
Procedure: (§1) The CCK-8 assay was used to evaluate the cytotoxicity of compounds 16a, 16b, and 16e on the breast cancer cell line MDA-MB-231 and colon cancer cell line HT-29. MDA-MB-231 and HT-29 are tumour cells that have been reported to express CA IX. We cultivated them under normoxia and hypoxia respectively and then evaluated the effects of the compounds on tumour cell viability at different concentrations.
(§2) Cell viability was tested by CCK-8 assay. The MDA-MB-231, HT-29 and MG-63 cell lines were provided by KeyGEN BioTECH Ltd. (Nanjing, Jiangsu, China). The cancer cell suspension was prepared to 5.0 × 10^4 cells/mL. After adding 100 μL cell suspension into each well of 96-well plates, the 96-well plates were placed in the incubator at 37 °C and 5% CO2 for 24 h. The compounds were diluted to the required concentration with the medium, and 100 μL of the corresponding medium was added to each well. Meanwhile, the negative control group was set up. The plates were incubated in normoxia or hypoxia for 48 h. The CCK-8 solution (10 μL) was added to each well, and the cells were incubated for another 3 h. After removing the bubbles in each well, cell viability was assessed by measuring the absorbance at 450 nm wavelength using a microplate reader. The hypoxia atmosphere consisted of 0.5% O2, 5% CO2, and 94.5% N2. The normoxia atmosphere was air.

MDA-MB-231 cells [2] = assay: CCK-8 cell viability assay; type: cell-based; conditions: Homo sapiens, MDA-MB-231, 400 μM, 48 h
Procedure: as §1, §2

MG-63 cells = assay: CCK-8 cell viability assay; type: cell-based, human; conditions: for viability at 800 µM: Homo sapiens, MG-63, 800 μM, 48 h
Procedure: The human osteosarcoma cell line MG-63 is a high-expressing cell line of CA IX and XII [24]. We selected compound 16b with the best activity in the above studies to study the cell viability inhibitory activity of MG-63 (detailed data is provided in the Table S4 of supplementary information).
as §2

MDA-MB-231 cells [3] = assay: Measurement of extracellular pH; type: cell-based; conditions: for Extracellular pH, Hypoxic condition: hypoxia, control 6.84; for Extracellular pH, Normoxic condition: normoxia, control 7.06
Procedure: (§3) The main role of CA IX and XII in tumour development is to regulate the pH of the tumour growth microenvironment so that tumour cells are in a weakly acidic environment. Such an acidic environment is conducive to the growth of tumour cells and protects tumour cells from being killed by chemotherapeutics.
(§4) The changes in extracellular pH were evaluated according to previously published procedures. Cancer cells were grown in the medium containing 10% FBS and incubated in 6-well plates for 12 h. After removing the medium, we added fresh medium to the 6-well plates and incubated them for 48 h under hypoxia or normoxia. Then, we measured the pH of the culture medium immediately after collection. The tested compounds were dissolved in DMSO and diluted to the desired concentration. After the addition of tested compounds, the same procedure was carried out.

HT-29 cells [4] = assay: Measurement of extracellular pH; type: cell-based; conditions: for Extracellular pH, Hypoxic condition: hypoxia, control 6.81; for Extracellular pH, Normoxic condition: normoxia, control 7.02
Procedure: as §3, with “chemotherapeutics. We evaluated the effects of 0.1 mM and 1.0 mM of compounds 16a and 16b on the pH of the tumour cell growth environment under normoxia or hypoxia (detailed data is provided in the Tables S5 and S6 of supplementary information).” for “chemotherapeutics.”
as §4

hCA II = hCA II (Homo sapiens, UniProt P00918); assay: CA inhibition assay (hydrolysis of 4-nitrophenylacetate); type: biochemical; conditions: 4-NPA hydrolysis; three independent assays, relative errors 5–10%
Source text: (§5) Carbonic anhydrase has the ability to catalyse the hydrolysis of 4-NPA. […] More detailed operations and specific parameters are as reported earlier.

hCA IX = hCA IX (Homo sapiens, UniProt Q16790); assay: as above; type: biochemical; conditions: 4-NPA hydrolysis; three independent assays, relative errors 5–10%
Source text: as §5

hCA XII = hCA XII (Homo sapiens, UniProt O43570); assay: as above; type: biochemical; conditions: 4-NPA hydrolysis; three independent assays, relative errors 5–10%
Sequence of hCA XII (O43570 25-354): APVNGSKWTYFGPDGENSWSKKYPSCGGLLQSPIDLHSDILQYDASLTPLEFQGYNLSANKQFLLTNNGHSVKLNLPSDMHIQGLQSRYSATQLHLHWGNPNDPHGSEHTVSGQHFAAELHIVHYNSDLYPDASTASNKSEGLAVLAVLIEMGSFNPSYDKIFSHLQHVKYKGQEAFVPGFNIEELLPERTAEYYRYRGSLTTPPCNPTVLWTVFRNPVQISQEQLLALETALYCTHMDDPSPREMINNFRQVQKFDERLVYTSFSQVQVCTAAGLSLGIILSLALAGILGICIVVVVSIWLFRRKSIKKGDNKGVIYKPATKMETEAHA
Source text: as §5

[5] = hypoxia, read-out: cell viability, Hypoxic condition (%)
[6] = normoxia, read-out: cell viability, Normoxic condition (%)

| IC50 (hCA II) [nM] | IC50 (hCA IX) [nM] | IC50 (hCA XII) [nM] | Compound | viability at 400 µM (HT-29 cells [1]; [5]) [%] | viability at 400 µM (HT-29 cells [1]; [6]) [%] | viability at 400 µM (MDA-MB-231 cells [2]; [5]) [%] | viability at 400 µM (MDA-MB-231 cells [2]; [6]) [%] | viability at 800 µM (MG-63 cells; [5]) [%] | viability at 800 µM (MG-63 cells; [6]) [%] | Extracellular pH, Hypoxic condition (MDA-MB-231 cells [3]; MDA-MB-231, 0.1 mM) | Extracellular pH, Normoxic condition (MDA-MB-231 cells [3]; MDA-MB-231, 0.1 mM) | Extracellular pH, Normoxic condition (MDA-MB-231 cells [3]; MDA-MB-231, 1.0 mM) | Extracellular pH, Hypoxic condition (HT-29 cells [4]; HT-29, 0.1 mM) | Extracellular pH, Normoxic condition (HT-29 cells [4]; HT-29, 0.1 mM) | Extracellular pH, Hypoxic condition (HT-29 cells [4]; HT-29, 1.0 mM) | Extracellular pH, Normoxic condition (HT-29 cells [4]; HT-29, 1.0 mM) | further results |
| --- | --- | --- | --- | --- | --- | --- | --- | --- | --- | --- | --- | --- | --- | --- | --- | --- | --- |
|  |  |  | CC(=O)Nc1nnc(S(N)(=O)=O)s1 [AZM, acetazolamide, reference compound] | 89.53 ± 0.161 | 91.7 ± 2.59 | 85.2 ± 1.96 | 96.2 ± 2.28 | 81.7 ± 1.17 | 87.1 ± 1.94 | 6.97 | 7.05 | 7.23 | 6.90 | 6.97 | 7.28 | 7.26 |  |
| 13.3 | 86.6 | 256 | NS(=O)(=O)c1ccc(-n2cc(-c3cccc(NC(=O)CCC(=O)N[C@@H]4O[C@H](CO)[C@@H](O)[C@H](O)[C@H]4O)c3)nn2)cc1 [Compound 16b, N^1-(3-(1-(4-sulfamoylphenyl)-1H-1,2,3-triazol-4-yl)phenyl)-N^4-((2R,3R,4S,5S,6R)-3,4,5-trihydroxy-6-(hydroxymethyl)tetrahydro-2H-pyran-2-yl)succinamide] | 81.1 ± 2.43 | 89.67 ± 0.554 | 86.5 ± 1.92 | 90.5 ± 0.965 | 76.6 ± 3.51 | 81.6 ± 3.34 | 6.88 | 7.02 | 7.20 | 6.82 | 6.96 | 7.27 | 7.15 | decrease in cell viability (HT-29 cells [1]; HT-29, highest concentration of 400 μM): 20%; inhibition of MG-63 cell viability (MG-63 cells; MG-63, normoxia and hypoxia): concentration-dependent; effect on extracellular pH (MDA-MB-231 cells [3]; MDA-MB-231, 0.1 mM and 1.0 mM): improve the extracellular pH; Extracellular pH, Hypoxic condition (MDA-MB-231 cells [3]; MDA-MB-231, 1.0 mM): 7.20; effect on extracellular pH (HT-29 cells [4]; HT-29, 0.1 mM and 1.0 mM): improve the extracellular pH |
| 41.6 | 84.7 | 162 | Cc1cc(-c2cn(-c3ccc(S(N)(=O)=O)cc3)nn2)ccc1NC(=O)CCC(=O)N[C@@H]1O[C@H](CO)[C@@H](O)[C@H](O)[C@H]1O [Compound 16e, N^1-(2-methyl-4-(1-(4-sulfamoylphenyl)-1H-1,2,3-triazol-4-yl)phenyl)-N^4-((2R,3R,4S,5S,6R)-3,4,5-trihydroxy-6-(hydroxymethyl)tetrahydro-2H-pyran-2-yl)succinamide] | 87.7 ± 1.79 | 91.5 ± 2.64 | 90.6 ± 2.76 | 87.2 ± 2.28 |  |  |  |  |  |  |  |  |  |  |
| 88.1 | 99.6 | 146 | COc1cc(-c2cn(-c3ccc(S(N)(=O)=O)cc3)nn2)ccc1NC(=O)CCCC(=O)N[C@@H]1O[C@H](CO)[C@@H](O)[C@H](O)[C@H]1O [Compound 16m, N^1-(2-methoxy-4-(1-(4-sulfamoylphenyl)-1H-1,2,3-triazol-4-yl)phenyl)-N^5-((2R,3R,4S,5S,6R)-3,4,5-trihydroxy-6-(hydroxymethyl)tetrahydro-2H-pyran-2-yl)glutaramide] |  |  |  |  |  |  |  |  |  |  |  |  |  |  |
